The results in this text go back to ChEMBL document CHEMBL1201862, “PubChem BioAssay data set” (2004).

Experiment in all cases: NCI-60 cell line screen, 48 h
The subject of assay [1] is KM12.
Assay [2] concerns MDA-MB-231.
The subject of assay [3] is U-251.
Assay [4] relates to SN12C.
Assay [5] deals with HOP-62.
Assay [6] has as its system HCT-15.
Assay [7] relates to PC-3.
In assay [8] the test system is SW-620.
Assay [9] has as its system NCI-H226.
Assay [10] has as its system EKVX.
Assay [11] deals with 786-0.
For assay [12], the system named is UO-31.
In assay [13] the test system is SK-MEL-2.
In assay [14] the test system is NCI/ADR-RES.
Assay [15] relates to SK-MEL-5.
The subject of assay [16] is NCI-H460.
The test system of assay [17] is OVCAR-3.
Assay [18] concerns NCI-H23.
For assay [19], the system named is SF-268.

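Briefly, cells in 96-well plates were exposed to five compound concentrations for 48 h, and endpoints were estimated by linear interpolation. GI50: concentration for 50% inhibition of growth.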 The source made the active and inactive calls. No stated cut-off is given here; in the data, active = GI50 up to about 1.1 µM and inactive = higher. Where only a bound is given, the exact number is not on record here.

As to `O=C1Nc2ccccc2/C1=N/Nc1nc(-c2ccc(Cl)c(Cl)c2)cs1`, the GI50 in assay [1] was 29.6 µM (inactive); in [2], > 100 µM (inactive); in assay [3], 77.4 µM (inactive); in assay [4], > 100 µM (inactive); in assay [5], > 100 µM (inactive); in [6], 6.24 µM. The GI50 in assay [7] was 24 µM (inactive); in [8], > 100 µM (inactive); in assay [9], > 100 µM (inactive); in assay [10], > 100 µM (inactive); in assay [11], > 100 µM (inactive); in [12], 7.01 µM (inactive). Also, the GI50 was 43 µM (inactive) in assay [13]; > 100 µM (inactive) in assay [14]; 20 µM (inactive) in assay [15]; 17.6 µM (inactive) in [16]; 4.75 µM (inactive) in assay [17]; 46.1 µM (inactive) in [18].
Regarding `CCCCn1cc(C(=O)O)c(=O)c2c3sccc3ccc21`, the GI50 was > 100 µM (inactive) in assay [1]; > 100 µM (inactive) in [2]; 6.73 µM (inactive) in assay [3]; > 100 µM (inactive) in [4]; > 100 µM (inactive) in assay [5]; 47 µM in [6]. The GI50 in [7], in assay [19], in [8], in [9], in assay [10] and in assay [11] was > 100 µM (inactive) in each case. In addition, the GI50 in assay [12] was 20 µM (inactive); in [13], > 100 µM (inactive); in [14] it was 19.9 µM (inactive); in assay [15] it was > 100 µM (inactive); in assay [16], > 100 µM (inactive); in assay [17], > 100 µM (inactive). For the same molecule, in [18], the GI50 was > 100 µM (inactive).
`CC(=O)C1C(=O)C(=O)N(c2ccc([N+](=O)[O-])cc2Cl)C1=O` (stereo not given): the GI50 in assay [1] is > 100 µM (inactive); in [2], > 100 µM (inactive); in [3], > 100 µM (inactive); in [4] it was > 100 µM (inactive); in assay [5], > 100 µM (inactive); in assay [6], over 100 µM. Besides, the GI50 in assay [7] is 82.2 µM (inactive); in [19], > 100 µM (inactive); in assay [8], > 100 µM (inactive); in [9] it was > 100 µM (inactive); in [10] it was > 100 µM (inactive); in assay [11] it was > 100 µM (inactive). Besides, the GI50 in [12] is 56.1 µM (inactive); in assay [13] it was > 100 µM (inactive); in assay [14], > 100 µM (inactive); in assay [15], > 100 µM (inactive); in [16] it was > 100 µM (inactive); in assay [17], 94.2 µM (inactive). For the same molecule, in [18], the GI50 is > 100 µM (inactive).
As for `Oc1cc(Cc2ccccc2)c(Cc2ccccc2)cc1O`, the GI50 in assay [1] was > 10 µM (inactive); in assay [2] it was > 10 µM (inactive); in [3], > 10 µM (inactive); in [4], > 10 µM (inactive); in [5], > 10 µM (inactive); in [6] it was over 10 µM. Also, the GI50 in [7], in [19], in assay [8], in assay [9], in assay [10] and in [11] was > 10 µM (inactive) in each case. The GI50 in assay [12], in assay [13], in assay [14], in [15], in assay [16] and in assay [17] was > 10 µM (inactive) each time. Also, the GI50 in assay [18] is > 10 µM (inactive).
In the case of `COc1cc2c(cc1OC)-c1cc3cc(OC)c(OC)cc3c(C)[n+]1CC2.O=C([O-])CS(=O)(=O)O`, the GI50 in assay [1] was 26.3 µM (inactive); in assay [2], > 100 µM (inactive); in [3], 15 µM (inactive); in assay [4], 37.6 µM (inactive); in assay [5], > 100 µM (inactive); in assay [6], over 100 µM. For the same molecule, the GI50 was 15.9 µM (inactive) in [7]; 0.975 µM (active) in [19]; > 100 µM (inactive) in assay [8]; > 100 µM (inactive) in [9]; > 100 µM (inactive) in [10]; > 100 µM (inactive) in assay [11]. For the same molecule, the GI50 was > 100 µM (inactive) in assay [12]; > 100 µM (inactive) in [13]; > 100 µM (inactive) in assay [14]; 37.8 µM (inactive) in assay [15]; 13.8 µM (inactive) in [16]; 29.1 µM (inactive) in assay [17]. The GI50 in assay [18] was 35.4 µM (inactive).
Consider `COC(=O)C1=C(OC(=O)/C(=C/c2ccccc2)c2ccc([N+](=O)[O-])cc2)C(C(=O)OC)[C@@]2(O)[C@@H](C(=O)OC)[C@H](C)C[C@@H]1[C@@H]2C(=O)OC` (stereo not given in full), for which the GI50 in assay [1] is > 100 µM (inactive); in assay [2], > 100 µM (inactive); in [3], > 100 µM (inactive); in assay [4] it was > 100 µM (inactive); in [5] it was > 100 µM (inactive); in assay [6], over 100 µM. Moreover, the GI50 in assay [7], in [19], in assay [8], in assay [9], in [10] and in assay [11] was > 100 µM (inactive) each time. In addition, the GI50 in [12], in assay [13], in assay [14], in assay [15], in [16] and in [17] was > 100 µM (inactive) in each case. In assay [18], the GI50 is > 100 µM (inactive).
For `CC(=O)N(C(=O)CC(=O)N1N=C(c2ccccc2)C(/N=N/c2ccccc2[N+](=O)[O-])C1=O)c1ccc(Cl)cc1` (stereo not given), the GI50 in [1] is > 10 µM (inactive); in assay [2] it was > 10 µM (inactive); in [3], > 10 µM (inactive); in [4], > 10 µM (inactive); in assay [5], > 10 µM (inactive); in assay [6], over 10 µM. The GI50 in [7], in assay [19], in assay [8], in [9], in [10] and in assay [11] was > 10 µM (inactive) each time. Moreover, the GI50 in [12], in assay [13], in [14], in [15], in [16] and in assay [17] was > 10 µM (inactive) each time. In addition, the GI50 in [18] was > 10 µM (inactive).
Turning to `CCCCN(CCCC)C(=C(C(Cl)=C(Cl)Cl)[N+](=O)[O-])N(CCCC)CCCC`, the GI50 in [1] is 72.1 µM (inactive); in assay [2], 65.2 µM (inactive); in assay [3], 45.9 µM (inactive); in [4], > 100 µM (inactive); in [5], > 100 µM (inactive); in assay [6], 98.6 µM. For the same molecule, the GI50 in assay [7] was 57 µM (inactive); in assay [19] it was > 100 µM (inactive); in assay [9] it was > 100 µM (inactive); in assay [10], 67.5 µM (inactive); in assay [11], > 100 µM (inactive); in assay [12], > 100 µM (inactive). Also, the GI50 in [13] was 80.2 µM (inactive); in assay [14], > 100 µM (inactive); in assay [15] it was > 100 µM (inactive); in assay [16] it was 89.5 µM (inactive); in assay [17], 37.2 µM (inactive); in assay [18] it was 82.2 µM (inactive).
